# Measured values published in patent publication US11498896B2 (The Broad Institute, Inc., priority 2014, dated 2022).
# Columns and labels:
# human D2R/β-arrestin [1] = biological target: T1, human D2R/β-arrestin (Homo sapiens (Human), UniProt P14416); assay: Gi/cAMP agonist assay (Lance Ultra cAMP, forskolin); type: cell-based; settings: CHO-K1 cells expressing human D2R/β-arrestin; agonist mode, 2.5 μM forskolin
# Experimental: Eu-cAMP tracer solution (10 μl, PerkinElmer, 360 μl of Tracer in 17.64 ml kit buffer) and ULight-anti-cAMP solution (10 μl, 120 μL antibody in 17.88 ml kit buffer) was then added to each well.
# human D2R/β-arrestin [2] = biological target: T1, human D2R/β-arrestin; assay: cell-based; settings: cAMP Antagonist, CHO-K1 cells expressing human D2R/β-arrestin; antagonist mode, 2.5 μM forskolin and 2.7 nM quinpirole
# human D2R/β-arrestin [3] = biological target: T1, human D2R/β-arrestin; assay: cell-based; settings: β-arrestin Antagonist, CHO-K1 cells expressing human D2R/β-arrestin; antagonist mode, quinpirole 130 nM
# Experimental: Cells were prepared for assays by growing cultures for up to 2 weeks (from about 6-20 passages). A vial of frozen cells was thawed in a water bath held at 37° C. The cells were then transferred into a 50 ml tube with 10 ml growth media. The vial was rinsed with growth media and the contents transferred to the 50 ml tube. The 50 ml tube was centrifuged at 1200 rpm for 5 minutes at room temperature. […] When the cells reached about 90% confluence (approximately 3 days between passages), the cells were passaged and used for either the agonist or antagonist assays as described below.
# The cells were prepared for β-arrestin assays as described above. The assays were performed using a PathHunter® β-Arrestin Detecting Kit (DiscoveRX). The cells were grown on 225 mm dishes, then washed once with 1×PBS (Cellgro), followed by digestion with 2.5 ml 1× Detachment reagent (DRX 92-0009) for approximately 2 minutes.
# human D2R/β-arrestin [4] = biological target: T1, human D2R/β-arrestin; assay: β-arrestin agonist assay (PathHunter); type: cell-based; settings: CHO-K1 cells expressing human D2R/β-arrestin; agonist mode
# Experimental: The detection reagent (9.6 μL, Buffer:Emerald II:Galactor-Star in a 19:5:1 ratio, i.e., 14.06 mL:3.7 mL:0.74 mL=18.5 mL) was then added to the agonist plates.
# T1 sequence (P14416 whole entry): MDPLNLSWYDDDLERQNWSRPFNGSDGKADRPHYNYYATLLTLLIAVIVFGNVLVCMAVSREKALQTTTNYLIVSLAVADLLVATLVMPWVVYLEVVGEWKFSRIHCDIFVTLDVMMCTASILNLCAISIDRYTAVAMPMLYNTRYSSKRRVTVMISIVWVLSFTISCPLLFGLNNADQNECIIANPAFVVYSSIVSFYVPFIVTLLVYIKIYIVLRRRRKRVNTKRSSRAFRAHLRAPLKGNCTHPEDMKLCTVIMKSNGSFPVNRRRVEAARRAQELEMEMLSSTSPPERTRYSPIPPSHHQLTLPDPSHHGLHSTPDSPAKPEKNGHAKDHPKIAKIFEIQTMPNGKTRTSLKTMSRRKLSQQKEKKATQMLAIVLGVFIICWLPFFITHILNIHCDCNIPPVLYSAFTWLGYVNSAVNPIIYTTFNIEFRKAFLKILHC
SMILES,EC50 (human D2R/β-arrestin [1]),IC50 (human D2R/β-arrestin [2]),IC50 (human D2R/β-arrestin [3]),EC50 (human D2R/β-arrestin [4])
"CC1(C(=O)NC2CC2)CCN(CC2COc3ccccc3O2)CC1 (single isomer, unassigned) [Compound 203a, N-cyclopropyl-1-((2,3-dihydrobenzo[b][1,4]dioxin-2-yl)methyl)-4-methylpiperidine-4-carboxamide]",< 0.1 µM,1 to 10 µM,0.1 to 1 µM,> 30 µM
"CC1(C(=O)Nc2ccccc2)CCN(CC2COc3ccccc3O2)CC1 (single isomer, unassigned) [Compound 204a, 1-((2,3-dihydrobenzo[b][1,4]dioxin-2-yl)methyl)-4-methyl-N-phenylpiperidine-4-carboxamide]",> 30 µM,1 to 10 µM,1 to 10 µM,> 30 µM
"FC(F)(F)c1ccccc1OCCN1CCC2(CC1)CC2c1ccc(Cl)cc1 (single isomer, unassigned) [Compound 216a, 1-(4-chlorophenyl)-6-(2-(2-(trifluoromethyl)phenoxy)ethyl)-6-azaspiro[2.5]octane]",> 30 µM,1 to 10 µM,1 to 10 µM,> 30 µM
"FC(F)(F)c1ccccc1OCCN1CCC2(CC1)CC2c1ccc(Cl)cc1 (single isomer, unassigned) [Compound 216b, 1-(4-chlorophenyl)-6-(2-(2-(trifluoromethyl)phenoxy)ethyl)-6-azaspiro[2.5]octane]",10 to 30 µM,> 30 µM,10 to 30 µM,> 30 µM
"COc1ccccc1OCCN1CCC(C)(Oc2ccc(Cl)cc2)C1 (centres unmarked) [Compound 2, 3-(4-Chlorophenoxy)-1-(2-(2-methoxyphenoxy)ethyl)-3-methyl pyrrolidine]",> 30 µM,0.1 to 1 µM,0.1 to 1 µM,> 30 µM
"CC1(Oc2ccc(Cl)cc2)CCN(CCCCOc2ccccc2)C1 (centres unmarked) [Compound 3, 3-(4-chlorophenoxy)-3-methyl-1-(4-phenoxybutyl)pyrrolidine]",> 30 µM,0.1 to 1 µM,1 to 10 µM,> 30 µM
"CC1(Oc2ccc(Cl)cc2)CCN(CCCOc2ccccc2)C1 (centres unmarked) [Compound 4, 3-(4-chlorophenoxy)-3-methyl-1-(3-phenoxypropyl)pyrrolidine]",> 30 µM,0.1 to 1 µM,1 to 10 µM,> 30 µM
"CC1(Oc2ccc(Cl)cc2)CCN(CCOc2ccccc2Cl)C1 (centres unmarked) [Compound 5, 3-(4-chlorophenoxy)-1-(2-(2-chlorophenoxy)ethyl)-3-methylpyrrolidine]",> 30 µM,< 0.1 µM,0.1 to 1 µM,> 30 µM
"CC1(Oc2ccc(Cl)cc2)CCN(CCOc2ccccc2C(F)(F)F)C1 (centres unmarked) [Compound 8, 3-(4-chlorophenoxy)-3-methyl-1-(2-(2-(trifluoromethyl)phenoxy)ethyl) pyrrolidine]",> 30 µM,0.1 to 1 µM,1 to 10 µM,> 30 µM
"CC1(Oc2ccc(Cl)cc2)CCN(CCOc2ccccc2F)C1 (centres unmarked) [Compound 9, 3-(4-chlorophenoxy)-1-(2-(2-fluorophenoxy)ethyl)-3-methylpyrrolidine]",< 0.1 µM,> 30 µM,0.1 to 1 µM,> 30 µM
"CC1(Oc2ccc(Cl)cc2)CCN(CCOc2cccnc2)C1 (centres unmarked) [Compound 12, 3-(2-(3-(4-chlorophenoxy)-3-methylpyrrolidin-1-yl)ethoxy)pyridine]",< 0.1 µM,> 30 µM,> 30 µM,< 0.1 µM
"CC1(Oc2ccc(Cl)cc2)CCN(CCOc2cccc(C(F)(F)F)c2)C1 (centres unmarked) [Compound 13, 3-(4-chlorophenoxy)-3-methyl-1-(2-(3-(trifluoromethyl)phenoxy)ethyl) pyrrolidine]",> 30 µM,0.1 to 1 µM,1 to 10 µM,> 30 µM
"CC1(Oc2ccc(Cl)cc2)CCN(CCOc2ccc(F)cc2)C1 (centres unmarked) [Compound 14, 3-(4-chlorophenoxy)-1-(2-(4-fluorophenoxy)ethyl)-3-methylpyrrolidine]",< 0.1 µM,0.1 to 1 µM,1 to 10 µM,> 30 µM
"CC1(Oc2ccc(Cl)cc2)CCN(CCOc2ccc(Cl)cc2)C1 (centres unmarked) [Compound 15, 3-(4-chlorophenoxy)-1-(2-(4-chlorophenoxy)ethyl)-3-methylpyrrolidine]",< 0.1 µM,1 to 10 µM,1 to 10 µM,> 30 µM
"CC1(Oc2ccc(Cl)cc2)CCN(CCOc2ccc(C(F)(F)F)cc2)C1 (centres unmarked) [Compound 17, 3-(4-chlorophenoxy)-3-methyl-1-(2-(4-(trifluoromethyl)phenoxy)ethyl) pyrrolidine]",> 30 µM,1 to 10 µM,10 to 30 µM,> 30 µM
"CC1(Oc2ccc(Cl)cc2)CCN(CCOc2ccc3ncsc3c2)C1 (centres unmarked) [Compound 18, 6-(2-(3-(4-chlorophenoxy)-3-methylpyrrolidin-1-yl)ethoxy)benzo[d]thiazole]",0.1 to 1 µM,> 30 µM,1 to 10 µM,> 30 µM
"COc1cccc(OCCN2CCC(C)(Oc3ccc(Cl)cc3)C2)c1 (centres unmarked) [Compound 19, 3-(4-chlorophenoxy)-1-(2-(3-methoxyphenoxy)ethyl)-3-methyl pyrrolidine]",< 0.1 µM,> 30 µM,> 30 µM,1 to 10 µM
"COc1ccc(OCCN2CCC(C)(Oc3ccc(Cl)cc3)C2)cc1 (centres unmarked) [Compound 20, 3-(4-chlorophenoxy)-1-(2-(4-methoxyphenoxy)ethyl)-3-methyl pyrrolidine]",< 0.1 µM,> 30 µM,10 to 30 µM,> 30 µM
CC1(Oc2ccc(Cl)cc2)CCN(CCOc2ccc3cccnc3c2)C1 (centres unmarked) [Compound 24],< 0.1 µM,> 30 µM,> 30 µM,< 0.1 µM
"CC1(Oc2ccc(Cl)cc2)CCN(CCOc2ccc3ccc(=O)[nH]c3c2)C1 (centres unmarked) [Compound 25, 7-(2-(3-(4-chlorophenoxy)-3-methylpyrrolidin-1-yl)ethoxy)quinolin-2(1H)-one]",> 30 µM,1 to 10 µM,1 to 10 µM,> 30 µM

# Other lines, results leading:
EC50 (human D2R/β-arrestin [1]),IC50 (human D2R/β-arrestin [2]),IC50 (human D2R/β-arrestin [3]),EC50 (human D2R/β-arrestin [4]),SMILES
> 30 µM,< 0.1 µM,< 0.1 µM,> 30 µM,"COc1cc2c(cc1O)C1Cc3ccc(O)c(OC)c3CN1CC2 (racemic) [D,L-Stepholidine, reference compound]"
0.1 to 1 µM,1 to 10 µM,10 to 30 µM,> 30 µM,"CNC(=O)C1(C)CCN(CC2COc3ccccc3O2)CC1 (single isomer, unassigned) [Compound 202a, 1-((2,3-dihydrobenzo[b][1,4]dioxin-2-yl)methyl)-N,4-dimethylpiperidine-4-carboxamide]"
> 30 µM,10 to 30 µM,10 to 30 µM,> 30 µM,"CC1(C(=O)NC2CC2)CCN(CC2COc3ccccc3O2)CC1 (single isomer, unassigned) [Compound 203b, N-cyclopropyl-1-((2,3-dihydrobenzo[b][1,4]dioxin-2-yl)methyl)-4-methylpiperidine-4-carboxamide]"
> 30 µM,0.1 to 1 µM,1 to 10 µM,> 30 µM,"Cc1ccccc1OCCN1CCC(C)(Oc2ccc(Cl)cc2)C1 (centres unmarked) [Compound 6, 3-(4-chlorophenoxy)-3-methyl-1-(2-(o-tolyloxy)ethyl)pyrrolidine]"
< 0.1 µM,> 30 µM,1 to 10 µM,> 30 µM,"CC1(Oc2ccc(Cl)cc2)CCN(CCOc2cccc(Cl)c2)C1 (centres unmarked) [Compound 10, 3-(4-chlorophenoxy)-1-(2-(3-chlorophenoxy)ethyl)-3-methylpyrrolidine]"
< 0.1 µM,0.1 to 1 µM,1 to 10 µM,> 30 µM,"Cc1cccc(OCCN2CCC(C)(Oc3ccc(Cl)cc3)C2)c1 (centres unmarked) [Compound 11, 3-(4-chlorophenoxy)-3-methyl-1-(2-(m-tolyloxy)ethyl)pyrrolidine]"
0.1 to 1 µM,> 30 µM,1 to 10 µM,> 30 µM,"Cc1ccc(OCCN2CCC(C)(Oc3ccc(Cl)cc3)C2)cc1 (centres unmarked) [Compound 16, 3-(4-Chlorophenoxy)-3-methyl-1-(2-(p-tolyloxy)ethyl)pyrrolidine]"
> 30 µM,1 to 10 µM,1 to 10 µM,> 30 µM,"CC1(Oc2ccc(Cl)cc2)CCN(CCOC2CCCCC2)C1 (centres unmarked) [Compound 21, 3-(4-chlorophenoxy)-1-(2-(cyclohexyloxy)ethyl)-3-methylpyrrolidine]"
< 0.1 µM,0.1 to 1 µM,1 to 10 µM,> 30 µM,"CC1(Oc2ccc(Cl)cc2)CCN(CCOc2ccc(F)cc2F)C1 (centres unmarked) [Compound 22, 3-(4-chlorophenoxy)-1-(2-(2,4-difluorophenoxy)ethyl)-3-methyl pyrrolidine]"
< 0.1 µM,> 30 µM,0.1 to 1 µM,> 30 µM,"CC1(Oc2ccc(Cl)cc2)CCN(CCOc2cc(F)ccc2F)C1 (centres unmarked) [Compound 23, 3-(4-chlorophenoxy)-1-(2-(2,5-difluorophenoxy)ethyl)-3-methyl pyrrolidine]"
> 30 µM,0.1 to 1 µM,1 to 10 µM,> 30 µM,"CC1(Oc2ccc(Cl)cc2)CCN(CCCc2ccccc2)C1 (centres unmarked) [Compound 26, 3-(4-chlorophenoxy)-3-methyl-1-(3-phenylpropyl)pyrrolidine]"
> 30 µM,< 0.1 µM,0.1 to 1 µM,> 30 µM,"CC1(Oc2ccc(Cl)cc2)CCN(CCCCOc2ccccc2Cl)C1 (centres unmarked) [Compound 28, 3-(4-chlorophenoxy)-1-(4-(2-chlorophenoxy)butyl)-3-methylpyrrolidine]"
